Measured values taken from PMC4878759 (PLoS ONE, 2016).

Tests used:
human wild-type CFTR = target: T1, human wild-type CFTR (Homo sapiens, UniProt P13569); assay: Apical membrane current in FRT cells expressing CFTR; type: cell-based; details: 10 μM, CFTR activated by 20 μM forskolin
T1 construct: expressed in transfected cells; host or cells: Fischer rat thyroid (FRT) cells
Method: (§1) Snapwell inserts containing ANO1, ANO2 or CFTR expressing FRT cells, ENaC expressing T-84 cells or the human primary airway epithelial cells were mounted in Ussing chambers (Physiologic Instruments, San Diego, CA). To induce transcriptional ENaC induction, the polarized T84 cells were incubated with 2 mM sodium butyrate for 2 days. To increase the functional expression of ANO1, the human airway epithelial cells were treated with IL-4 (10 ng/mL) for 2 days. For T-84 and the human primary airway epithelial cells, the apical and basolateral bath were filled with HCO3^—buffered solution containing (in mM): 120 NaCl, 5 KCl, 1 MgCl2, 1 CaCl2, 10 D-glucose, 2.5 HEPES, and 25 NaHCO3 (pH 7.4). For FRT cells, the basolateral bath was filled with the HCO3^—buffered solution and the apical bath was filled with a half-Cl^- solution. In the half-Cl^- solution 65 mM NaCl in the HCO3^—buffered solution was replaced by Na-gluconate. […] ATP was applied to the apical bath solution to induce intracellular calcium increase. […] Apical membrane currents were measured with an EVC4000 Multi-Channel V/I Clamp (World Precision Instruments, Sarasota, FL) and PowerLab 4/35 (AD Instruments, Castle Hill, Australia). Data were analyzed using Labchart Pro 7 (AD Instruments). The sampling rate was 4 Hz.
(§2) ANO1 was activated by either 10 μM Eact, an ANO1 activator, or 100 μM ATP.

ENaC = target: T2, ENaC (Homo sapiens, UniProt P37088+P51168+P51170); assay: Short circuit current in T84 cells expressing ENaC; type: cell-based; details: 100 μM
T2 construct: endogenous in cells; host or cells: T84 cells, ENaC induced with 2 mM sodium butyrate for 2 days
T2 sequence (P37088 1-669): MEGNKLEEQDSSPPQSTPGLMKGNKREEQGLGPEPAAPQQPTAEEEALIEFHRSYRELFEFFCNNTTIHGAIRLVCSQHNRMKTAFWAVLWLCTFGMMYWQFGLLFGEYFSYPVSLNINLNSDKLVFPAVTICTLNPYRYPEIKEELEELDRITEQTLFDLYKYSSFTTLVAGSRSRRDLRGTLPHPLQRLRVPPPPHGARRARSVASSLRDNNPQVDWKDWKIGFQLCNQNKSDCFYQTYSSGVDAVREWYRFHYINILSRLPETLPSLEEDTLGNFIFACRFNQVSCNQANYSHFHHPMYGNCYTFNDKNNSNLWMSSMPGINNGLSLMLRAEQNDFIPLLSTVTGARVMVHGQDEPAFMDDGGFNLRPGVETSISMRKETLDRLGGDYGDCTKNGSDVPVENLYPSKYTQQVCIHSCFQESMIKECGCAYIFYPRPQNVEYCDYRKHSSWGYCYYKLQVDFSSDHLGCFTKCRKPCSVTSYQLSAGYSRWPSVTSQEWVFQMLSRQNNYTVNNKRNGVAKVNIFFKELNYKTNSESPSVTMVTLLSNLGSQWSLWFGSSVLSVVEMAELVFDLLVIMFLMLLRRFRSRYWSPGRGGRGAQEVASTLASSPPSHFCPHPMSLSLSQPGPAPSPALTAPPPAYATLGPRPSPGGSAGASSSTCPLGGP
T2 sequence (P51168 1-640): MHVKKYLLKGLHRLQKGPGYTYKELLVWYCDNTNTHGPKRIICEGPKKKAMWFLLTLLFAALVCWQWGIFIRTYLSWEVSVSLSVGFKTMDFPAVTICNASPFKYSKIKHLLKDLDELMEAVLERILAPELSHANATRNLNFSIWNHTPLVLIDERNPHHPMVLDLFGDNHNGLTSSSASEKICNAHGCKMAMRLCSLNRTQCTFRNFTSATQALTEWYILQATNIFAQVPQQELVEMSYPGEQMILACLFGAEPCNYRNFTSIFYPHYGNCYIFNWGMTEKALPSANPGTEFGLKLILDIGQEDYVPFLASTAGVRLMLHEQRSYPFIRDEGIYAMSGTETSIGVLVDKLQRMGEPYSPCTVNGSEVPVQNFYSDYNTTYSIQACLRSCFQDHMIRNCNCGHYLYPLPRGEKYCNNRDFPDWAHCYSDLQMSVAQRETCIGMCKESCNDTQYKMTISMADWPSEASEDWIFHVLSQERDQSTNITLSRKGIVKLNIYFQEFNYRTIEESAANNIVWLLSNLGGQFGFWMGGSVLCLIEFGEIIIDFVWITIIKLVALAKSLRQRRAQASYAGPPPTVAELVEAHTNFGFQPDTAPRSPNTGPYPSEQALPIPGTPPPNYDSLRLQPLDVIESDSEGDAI
T2 sequence (P51170 1-649): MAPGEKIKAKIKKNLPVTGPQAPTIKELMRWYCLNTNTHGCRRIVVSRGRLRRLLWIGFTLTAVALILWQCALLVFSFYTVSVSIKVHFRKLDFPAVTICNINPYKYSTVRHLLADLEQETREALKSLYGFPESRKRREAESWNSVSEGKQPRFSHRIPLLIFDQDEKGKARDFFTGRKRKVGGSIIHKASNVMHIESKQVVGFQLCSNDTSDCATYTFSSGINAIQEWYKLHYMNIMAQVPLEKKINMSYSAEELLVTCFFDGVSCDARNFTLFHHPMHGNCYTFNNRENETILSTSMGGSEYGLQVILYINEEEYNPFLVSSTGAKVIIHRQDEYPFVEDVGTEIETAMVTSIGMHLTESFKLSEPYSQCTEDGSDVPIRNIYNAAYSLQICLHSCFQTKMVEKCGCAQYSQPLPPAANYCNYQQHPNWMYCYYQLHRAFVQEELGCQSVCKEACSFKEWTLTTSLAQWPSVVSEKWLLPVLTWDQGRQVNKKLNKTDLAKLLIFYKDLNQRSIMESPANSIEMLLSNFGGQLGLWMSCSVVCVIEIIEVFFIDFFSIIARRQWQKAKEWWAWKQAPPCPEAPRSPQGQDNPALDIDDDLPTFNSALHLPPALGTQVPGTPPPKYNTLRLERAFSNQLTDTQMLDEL
Method: as §1, §2

ANO2 [1] = tested on: ANO2; parameters: method as in PMID 22526416; details: ref [38]; cited from earlier work
VRAC [2] = tested on: VRAC; parameters: method as in PMID 24965069, PMID 25163766, PMID 26438191; details: ref [26]–[28]; cited from earlier work
ANO1 [3] = tested on: ANO1; parameters: method as in PMID 22526416; details: ref [38]; cited from earlier work
mouse ANO2 = target: T3, mouse ANO2 (Mus musculus, UniProt Q8CFW1); assay: YFP quenching assay in FRT cells expressing ANO2; type: cell-based; details: dose dependent, 100 μM ATP
T3 sequence (Q8CFW1 1-1002): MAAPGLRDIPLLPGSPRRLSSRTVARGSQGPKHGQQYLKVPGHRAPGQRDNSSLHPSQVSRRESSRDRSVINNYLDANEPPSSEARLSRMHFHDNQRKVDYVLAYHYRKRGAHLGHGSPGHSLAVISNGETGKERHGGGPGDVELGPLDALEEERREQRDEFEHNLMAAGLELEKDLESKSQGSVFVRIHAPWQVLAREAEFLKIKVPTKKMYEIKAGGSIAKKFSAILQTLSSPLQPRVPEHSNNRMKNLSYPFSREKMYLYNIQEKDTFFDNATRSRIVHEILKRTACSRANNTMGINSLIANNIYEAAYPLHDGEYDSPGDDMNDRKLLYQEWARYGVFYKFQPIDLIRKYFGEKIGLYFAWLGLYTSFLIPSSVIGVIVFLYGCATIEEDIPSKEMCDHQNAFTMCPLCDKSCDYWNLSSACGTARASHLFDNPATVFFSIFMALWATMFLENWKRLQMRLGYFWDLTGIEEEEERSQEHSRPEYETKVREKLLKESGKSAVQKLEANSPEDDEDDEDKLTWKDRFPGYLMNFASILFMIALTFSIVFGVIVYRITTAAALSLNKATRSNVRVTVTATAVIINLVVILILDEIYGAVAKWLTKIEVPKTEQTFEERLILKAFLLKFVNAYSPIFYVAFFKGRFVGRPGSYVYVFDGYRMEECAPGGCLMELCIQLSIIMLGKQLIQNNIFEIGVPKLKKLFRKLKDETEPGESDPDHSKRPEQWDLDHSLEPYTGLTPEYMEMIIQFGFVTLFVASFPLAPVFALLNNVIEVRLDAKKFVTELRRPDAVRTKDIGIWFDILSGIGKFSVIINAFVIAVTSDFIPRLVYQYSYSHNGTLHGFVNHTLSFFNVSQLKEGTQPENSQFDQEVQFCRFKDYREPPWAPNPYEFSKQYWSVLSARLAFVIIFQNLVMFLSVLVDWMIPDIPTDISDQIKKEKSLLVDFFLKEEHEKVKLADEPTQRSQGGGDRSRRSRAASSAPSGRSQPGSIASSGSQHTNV

ANO1 [4] = target: T4, ANO1 (Homo sapiens, UniProt Q5XXA6, DEL476-501); assay: Apical membrane current in ANO1 expressing FRT cells; type: cell-based; details: 100 μM ATP
T4 construct: expressed in transfected cells
T4 sequence (Q5XXA6 with tags, fused parts or gaps isoform Q5XXA6-5 DEL539-564): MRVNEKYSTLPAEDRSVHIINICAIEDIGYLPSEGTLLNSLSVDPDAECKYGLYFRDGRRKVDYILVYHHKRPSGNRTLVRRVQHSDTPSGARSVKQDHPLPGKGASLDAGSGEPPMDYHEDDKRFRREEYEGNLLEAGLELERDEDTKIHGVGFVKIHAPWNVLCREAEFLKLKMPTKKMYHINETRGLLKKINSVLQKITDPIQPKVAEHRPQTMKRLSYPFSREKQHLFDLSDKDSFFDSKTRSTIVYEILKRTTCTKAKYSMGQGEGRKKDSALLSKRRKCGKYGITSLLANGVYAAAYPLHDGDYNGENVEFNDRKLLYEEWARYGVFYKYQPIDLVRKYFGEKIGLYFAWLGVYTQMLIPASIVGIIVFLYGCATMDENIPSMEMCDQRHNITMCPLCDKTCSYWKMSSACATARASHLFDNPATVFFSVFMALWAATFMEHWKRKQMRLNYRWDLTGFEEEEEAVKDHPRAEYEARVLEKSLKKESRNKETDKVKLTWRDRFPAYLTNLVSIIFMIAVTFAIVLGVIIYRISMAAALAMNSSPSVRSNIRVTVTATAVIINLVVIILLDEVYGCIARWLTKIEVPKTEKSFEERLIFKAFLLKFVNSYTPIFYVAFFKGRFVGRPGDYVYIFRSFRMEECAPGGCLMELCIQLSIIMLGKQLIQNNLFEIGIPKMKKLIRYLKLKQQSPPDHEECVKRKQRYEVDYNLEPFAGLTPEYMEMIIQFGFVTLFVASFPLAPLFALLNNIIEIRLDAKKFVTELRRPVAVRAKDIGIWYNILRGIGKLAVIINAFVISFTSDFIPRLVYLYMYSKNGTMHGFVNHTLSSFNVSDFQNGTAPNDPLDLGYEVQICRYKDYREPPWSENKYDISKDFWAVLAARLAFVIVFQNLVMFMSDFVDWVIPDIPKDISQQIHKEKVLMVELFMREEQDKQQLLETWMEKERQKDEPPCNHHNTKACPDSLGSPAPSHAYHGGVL
Method: as §1

ANO2 [5] = target: T5, ANO2 (Mus musculus, UniProt Q8CFW1); assay: Apical membrane current in FRT-ANO2 cells; type: cell-based; details: 10 μM pretreatment
T5 sequence (Q8CFW1 1-1002): T3 sequence (Q8CFW1 1-1002)
Method: as §1
ANO1 belongs to anoctamin gene family which contains ten members presenting eight-pass transmembrane segments with cytosolic N- and C-terminals. ANO2 shares a high level of amino acid homology to ANO1 (~60%) and, ANO1 and ANO2 are confirmed CaCCs. However, the roles of other family members (ANO3-ANO10) remain poorly understood and controversial. […] We investigated the effect of these inhibitors on ANO2-mediated apical membrane current in FRT-ANO2 cells.

VRAC [6] = assay: VRAC activity by YFP quenching in LN215 cells; type: cell-based, human; details: 10 μM
Method: LN215 cells, a human glioma cell line, were stably transfected with YFP-F46L/H148Q/I152L, a halide sensor YFP. After the cells were incubated on 96well black plates (Corning Inc., Corning, NY) for 48 hours, each well of the 96-well plate was washed 3 times in PBS (200 μL/wash), and the wells were filled with 50 μl/well isotonic solution (in mM): 140 NaCl, 5 KCl, 20 HEPES (310 mOsm/kg; pH 7.4 with NaOH). In each well, VRAC expressed on the cells were stimulated with addition of 50 μl of hypotonic solutions (in mM): 5 KCl, 20 HEPES, 90 mannitol (120 mOsm/kg). Test compounds (1 μL) were added to each well in a dose dependent manner. After 5 min, 96-well plates were transferred to a plate reader for fluorescence assay. Each well was assayed individually for VRAC-mediated I^- influx by recording fluorescence continuously (400 ms per point) for 7.6 s. YFP fluorescence was recorded 0.4 s for baseline, then 100 μL of 140 mM I^- solution was added at 0.4 s to see the change in fluorescence. Initial iodide influx rate was determined from the initial slope of fluorescence decrease, by nonlinear regression, following infusion of iodide.

T1 sequence (P13569 whole entry): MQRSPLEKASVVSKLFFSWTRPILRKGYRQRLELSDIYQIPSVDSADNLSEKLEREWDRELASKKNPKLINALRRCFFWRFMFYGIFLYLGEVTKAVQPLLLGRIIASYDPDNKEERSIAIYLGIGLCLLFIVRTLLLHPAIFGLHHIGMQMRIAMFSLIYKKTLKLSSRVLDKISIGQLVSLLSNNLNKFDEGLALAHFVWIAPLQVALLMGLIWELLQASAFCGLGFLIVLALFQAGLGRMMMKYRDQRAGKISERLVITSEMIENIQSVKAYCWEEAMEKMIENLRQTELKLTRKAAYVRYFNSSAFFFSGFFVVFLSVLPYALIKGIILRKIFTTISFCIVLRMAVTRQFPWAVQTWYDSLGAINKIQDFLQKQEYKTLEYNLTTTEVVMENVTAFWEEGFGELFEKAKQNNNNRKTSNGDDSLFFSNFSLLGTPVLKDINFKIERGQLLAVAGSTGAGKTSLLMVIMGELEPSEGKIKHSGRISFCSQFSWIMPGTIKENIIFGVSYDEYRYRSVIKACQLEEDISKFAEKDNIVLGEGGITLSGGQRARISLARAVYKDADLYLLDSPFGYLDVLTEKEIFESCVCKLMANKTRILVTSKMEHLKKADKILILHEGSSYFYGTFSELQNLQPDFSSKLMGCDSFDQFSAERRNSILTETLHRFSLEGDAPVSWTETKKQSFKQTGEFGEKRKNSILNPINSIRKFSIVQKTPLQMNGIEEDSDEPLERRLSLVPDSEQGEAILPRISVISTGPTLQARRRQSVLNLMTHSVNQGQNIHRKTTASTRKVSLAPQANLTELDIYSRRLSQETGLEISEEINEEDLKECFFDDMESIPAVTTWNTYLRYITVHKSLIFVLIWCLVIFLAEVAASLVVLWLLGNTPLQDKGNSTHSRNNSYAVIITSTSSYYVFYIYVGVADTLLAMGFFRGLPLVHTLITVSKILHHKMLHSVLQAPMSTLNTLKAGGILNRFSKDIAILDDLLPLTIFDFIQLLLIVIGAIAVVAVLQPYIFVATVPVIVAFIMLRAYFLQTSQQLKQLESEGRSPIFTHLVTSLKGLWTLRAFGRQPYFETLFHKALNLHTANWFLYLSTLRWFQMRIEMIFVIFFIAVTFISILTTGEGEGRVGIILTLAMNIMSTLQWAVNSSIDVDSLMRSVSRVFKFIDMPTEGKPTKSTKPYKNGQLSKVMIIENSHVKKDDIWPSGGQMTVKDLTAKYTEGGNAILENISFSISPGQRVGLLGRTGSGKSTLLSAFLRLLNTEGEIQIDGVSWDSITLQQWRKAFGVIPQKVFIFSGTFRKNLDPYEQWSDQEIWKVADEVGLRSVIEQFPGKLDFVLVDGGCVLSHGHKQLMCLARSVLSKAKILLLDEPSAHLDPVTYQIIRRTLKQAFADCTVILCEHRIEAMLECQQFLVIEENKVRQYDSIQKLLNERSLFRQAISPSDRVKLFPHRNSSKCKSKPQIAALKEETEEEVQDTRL

Molecule: CFTRinh-172
- effect on CFTR channel activity (human wild-type CFTR): inhibited

Molecule: N=C(N)NC(=O)c1nc(Cl)c(N)nc1N [amiloride]
- effect on ENaC channel activity (ENaC): fully blocked

Molecule: O=C(O)c1cc([N+](=O)[O-])ccc1NCCCc1ccccc1 [NPPB, 5-nitro-2-(3-phenylpropylamino)-benzoic acid]
- inhibition of ANO2 (ANO2 [1]): inhibited
- block of VRAC activity (VRAC [2]): potently blocked
- inhibition of ANO1 (ANO1 [3]): inhibited

Molecule: O=C(O)c1cccnc1Nc1cccc(C(F)(F)F)c1 [niflumic acid]
- inhibition of ANO2 (ANO2 [1]): inhibited
- inhibition of ANO1 (ANO1 [3]): inhibited

Molecule: COc1cc(Nc2ccc([N+](=O)[O-])cc2C(=O)O)cc2ccccc12 [MONNA, N-((4-methoxy)-2-naphthyl)-5-nitroanthranilic acid]
- effect on ANO2 activity (mouse ANO2): potently blocked
- inhibition of ATP-induced ANO1 current (ANO1 [4]; 10 μM pretreatment): almost complete inhibition
- IC50 (ANO1 [4]; apical membrane current, 20 min pretreatment, read-out: IC50 of ATP-induced ANO1 activation): 1.95 ± 1.16 µM
- effect on ATP-induced ANO2 current (ANO2 [5]): strongly blocked
- inhibition of VRAC activity (VRAC [6]): 87.9 ± 1.7%
